Measurements taken from patent publication US20170087167A1, “MODIFICATION OF DRUGS FOR INCORPORATION INTO NANOPARTICLES” (UNIVERSITY OF GEORGIA RESEARCH FOUNDATION, INC., priority 2015, published 2017).

What was measured:
[1] = system: IL-6; experiment: In vivo inflammation study, LPS stimulated mouse model, serum IL-6 by ELISA; set-up: species or system BALB/c Albino male mice; conditions: 12 h before LPS
Procedure: (§1) To explore the anti-inflammatory properties of the new aspirin derivative in NP formulation in vivo, we used mice stimulated with lipopolysaccharide (LPS). […] In our studies following similar protocol in C57BL/6 or BALB/c (albino) mice, we observed enhanced levels of TNF-α and IL-6 in the serum after intraperitonial administration of 100 μg of LPS per animal and the levels peaked at 1.5 and 3 h, respectively for TNF-α and IL-6. Next, 8 week old BALB/c male mice were administered with saline or aspirin (20 mg/kg) or NT-(Asp)4-NP (20 mg/kg with respect to aspirin) or T-(Asp)4-NP (20 mg/kg with respect to aspirin) by i.v. injections and after 12 h, these animals were subsequently treated with intraperitonially injected LPS for 1.5 h and 3 h (FIG. 3A). Serum samples were isolated from the treated animals and pro-inflammatory and anti-inflammatory cytokine levels in the serum samples were evaluated by the enzyme-linked immunosorbent assay (ELISA).
(§2) Anti-inflammatory properties of T/NT-(Asp)4-NPs and aspirin were evaluated in LPS stimulated mouse model. […] The absorbance of the product formed was recorded at 450 nm using a BioTek Synergy HT well plate reader.

[2] = system: TNF-α; experiment: In vivo inflammation study, LPS stimulated mouse model, serum TNF-α by ELISA; set-up: species or system BALB/c Albino male mice; conditions: 20 mg/kg (with respect to aspirin) i.v.
Procedure: as §1, §2

Question: How did the “serum IL-6 level compared to only LPS” value ([1]; 20 mg/kg (with respect to aspirin) i.v., LPS for 1.5 h) turn out when `CC(=O)Oc1ccccc1C(=O)O` [aspirin, acetylsalicylic acid] was run?
Answer: Its value is “significantly reduced”.

Question: What about the “serum IL-6 level compared to LPS alone” value ([1]; 20 mg/kg i.v., LPS for 3 h) of the same molecule?
Answer: The value was “reduced IL-6 levels”.

Question: What about the “serum TNF-α level compared to only LPS” value ([2]; 12 h before LPS i.p., LPS for 1.5 h) of the same molecule?
Answer: Its value is “non-significant”.

Question: What about the “serum TNF-α level” value ([2]; 12 h before LPS, LPS for 3 h) of the same molecule?
Answer: Its value is “did not show any significant differences”.
